The source of these data is PubChem BioAssay (NCI).

Each structure is given as a SMILES string. Values joined by “and” are separate entries in the source; they are usually repeats but may differ in a detail not shown here. Identical values can stand only once.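 Tested at 5 concentrations; 48 h exposure; 96-well plates; endpoints linearly interpolated, else capped at highest concentration. GI50: concentration for 50% inhibition of growth. At the TGI there is no net growth.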 Some results are limits rather than exact numbers.

Among the test systems are KM12 colon; HOP-92 NSCLC; ACHN renal; COLO 205 colon; HL-60(TB) leukemia; NCI-H460 lung; M14 melanoma; TK-10 renal; RXF 393 renal.
Common to all, as to experiment: NCI anticancer screen, dose series, 48 h

With `OCC(O)CC[CH2][Sn]([Br])([c]1ccccc1)[c]1ccccc1` (stereo not given), the GI50 in the assay with KM12 colon was more than 100 µM; with HOP-92 NSCLC, more than 100 µM; in the assay with ACHN renal it was more than 100 µM; in the assay with COLO 205 colon it was more than 100 µM; with HL-60(TB) leukemia, 52 µM; in the assay with NCI-H460 lung it was more than 100 µM. Besides, the GI50 in the assay with M14 melanoma, with TK-10 renal and in the assay on RXF 393 renal was more than 100 µM in each case. Further, the TGI in the assay with KM12 colon, in the assay on HOP-92 NSCLC, with ACHN renal, with COLO 205 colon, in the assay with HL-60(TB) leukemia and in the assay with NCI-H460 lung was more than 100 µM throughout. For the same compound, the TGI in the assay with M14 melanoma, in the assay with TK-10 renal and in the assay on RXF 393 renal was more than 100 µM in each case.
Regarding `O=C(O)CNS(=O)(=O)c1ccc(NCc2ccccc2)cc1`, the TGI with HOP-92 NSCLC, in the assay on ACHN renal, with COLO 205 colon, in the assay with NCI-H460 lung, in the assay on M14 melanoma and in the assay with TK-10 renal was more than 100 µM each time. This compound also registered a TGI in the assay on RXF 393 renal of more than 100 µM.
For the compound `O=C(/N=N/C(=O)OCc1ccccc1)OCc1ccccc1`, the TGI is more than 100 µM with KM12 colon; 56.8 µM with HOP-92 NSCLC; more than 100 µM in the assay with ACHN renal; more than 100 µM in the assay with COLO 205 colon; more than 100 µM with HL-60(TB) leukemia; more than 100 µM in the assay on NCI-H460 lung. The TGI in the assay on M14 melanoma, with TK-10 renal and in the assay with RXF 393 renal was more than 100 µM in each case.
In the case of `[Cl-].[Dy+3].[O-]/N=C(\c1ccccc1)c1ccccn1.[O-]/N=C(\c1ccccc1)c1ccccn1.[O-]/N=C(\c1ccccc1)c1ccccn1`, the GI50 is 55.3 µM in the assay with KM12 colon; 41.4 µM in the assay on HOP-92 NSCLC; 34.6 µM in the assay with ACHN renal; 33.5 µM in the assay with COLO 205 colon; 18.4 µM in the assay with HL-60(TB) leukemia; 28.8 µM in the assay on NCI-H460 lung. Besides, the results for the GI50 in the assay on M14 melanoma and with TK-10 renal were 22.1 µM and 46.3 µM, respectively. Also, the TGI in the assay with KM12 colon is more than 100 µM; in the assay with HOP-92 NSCLC it was more than 100 µM; with ACHN renal, more than 100 µM; with COLO 205 colon, more than 100 µM; in the assay with HL-60(TB) leukemia, 58.4 µM; with NCI-H460 lung it was more than 100 µM. The figures for the TGI in the assay with M14 melanoma and in the assay on TK-10 renal were 43.1 µM and more than 100 µM, respectively.
For the compound `CC(=O)CNC(=O)OC(C)(C)C`, the TGI in the assay on KM12 colon, in the assay on HOP-92 NSCLC, in the assay with ACHN renal, with HL-60(TB) leukemia, in the assay with NCI-H460 lung and with M14 melanoma was more than 100 µM in each case. Further, the TGI with TK-10 renal and in the assay with RXF 393 renal was more than 100 µM each time.
Take `CCC[CH2][Sn]1([CH2]CCC)[O]Cc2nc(C)ccc2[O]1`: the GI50 is 11.1 µM in the assay with KM12 colon; 2.52 µM with HOP-92 NSCLC; 12 µM in the assay with ACHN renal; 4.38 µM in the assay on COLO 205 colon; 1.58 µM in the assay with HL-60(TB) leukemia; 16 µM in the assay on NCI-H460 lung. Moreover, the figures for the GI50 in the assay with M14 melanoma, with TK-10 renal and in the assay with RXF 393 renal were 10.9 µM, 3.97 µM and 8.15 µM, respectively. The TGI in the assay on KM12 colon turned out to be 23 µM; with HOP-92 NSCLC it was 19.2 µM; in the assay on ACHN renal it was 24.4 µM; in the assay with COLO 205 colon, 15.9 µM; in the assay on HL-60(TB) leukemia, 4.64 µM; in the assay on NCI-H460 lung it was 31.1 µM. The TGI in the assay with M14 melanoma amounted to 23.5 µM; in the assay on TK-10 renal, 14.7 µM; in the assay with RXF 393 renal, 19.9 µM.
`C=C1C(=O)O[C@H]2[C@H]1CC/C(Cn1cc(-c3ccc(OC)cc3)nn1)=C\CC[C@@]1(C)O[C@@H]21`: the GI50 in the assay on KM12 colon was 3.51 µM; with HOP-92 NSCLC it was 1.13 µM; in the assay on ACHN renal, 0.293 µM; in the assay with COLO 205 colon, 0.504 µM; in the assay with HL-60(TB) leukemia, 1.17 µM; in the assay with NCI-H460 lung, 8.45 µM. In addition, the GI50 in the assay on M14 melanoma is 1.3 µM; with TK-10 renal, 1.42 µM; in the assay on RXF 393 renal, 0.703 µM. Further, the TGI in the assay with KM12 colon is 14.2 µM; in the assay with HOP-92 NSCLC it was 2.69 µM; in the assay with ACHN renal, 1.12 µM; in the assay with COLO 205 colon, 1.95 µM; in the assay with HL-60(TB) leukemia, 3.86 µM; in the assay on NCI-H460 lung it was 25.2 µM. For the same compound, the TGI in the assay with M14 melanoma turned out to be 3.09 µM; with TK-10 renal, 2.85 µM; in the assay with RXF 393 renal, 2.02 µM.
Consider `NC(=O)C(=O)N/N=C(\CC1(O)C(=O)Nc2ccccc21)c1ccc2ccccc2c1` (stereo not given), for which the TGI in the assay on KM12 colon was 58.7 µM; in the assay with HOP-92 NSCLC, 87.8 µM; in the assay with ACHN renal, more than 100 µM; with COLO 205 colon it was 41.1 µM; with HL-60(TB) leukemia it was 36.5 µM; in the assay on NCI-H460 lung, more than 100 µM. For the same compound, the TGI was more than 100 µM in the assay with M14 melanoma, more than 100 µM in the assay on TK-10 renal and 41.2 µM with RXF 393 renal.
With `O=c1/c(=C/c2ccco2)sc2nc3ccccc3n12`, the TGI with KM12 colon is more than 100 µM; with HOP-92 NSCLC it was more than 10 µM; with ACHN renal, more than 100 µM; in the assay on COLO 205 colon, more than 100 µM; with HL-60(TB) leukemia, more than 100 µM; in the assay on NCI-H460 lung it was more than 100 µM. Also, the TGI in the assay with M14 melanoma, in the assay with TK-10 renal and in the assay on RXF 393 renal was more than 100 µM in each case. Besides, the GI50 in the assay on ACHN renal was more than 100 µM; in the assay with HL-60(TB) leukemia it was more than 100 µM; in the assay on NCI-H460 lung, more than 100 µM; with M14 melanoma, more than 100 µM; in the assay with TK-10 renal, more than 10 µM; in the assay with RXF 393 renal, more than 10 µM.
With `COc1ccc(/C=C/CN(C)CCc2ccccc2)cc1OC`, the TGI is more than 100 µM in the assay on KM12 colon; 9.9 µM with HOP-92 NSCLC; more than 100 µM with ACHN renal; more than 100 µM in the assay with COLO 205 colon; more than 100 µM in the assay with TK-10 renal; more than 100 µM in the assay on RXF 393 renal.
For the compound `O=C1C2c3[nH]c4ccccc4c3C3CCCCCCC3C2C(=O)N1c1ccccc1` (stereo not given), the TGI with KM12 colon is more than 100 µM; in the assay on ACHN renal, 38.4 µM; in the assay on COLO 205 colon, 28.6 µM; in the assay with NCI-H460 lung, 18.6 µM; in the assay on M14 melanoma, 42.5 µM; in the assay with TK-10 renal, 27 µM. Moreover, in the assay on RXF 393 renal, the TGI was determined as 23.8 µM.
With `CCc1ccc(/C=C\c2cc(OC)c(OC)c(OC)c2)cc1`, the GI50 with HOP-92 NSCLC is 0.0222 µM; in the assay on ACHN renal it was 0.0784 µM; in the assay on COLO 205 colon, 0.0212 µM; with HL-60(TB) leukemia, 0.0172 µM; with NCI-H460 lung it was 0.0329 µM; in the assay on M14 melanoma, 0.0168 µM. Besides, the TGI is 0.233 µM in the assay on HOP-92 NSCLC; 31.8 µM in the assay on ACHN renal; 0.134 µM and 0.0499 µM with COLO 205 colon; 19.9 µM in the assay with M14 melanoma; 0.0783 µM in the assay with RXF 393 renal.
In the case of `O=C1/C(=C/c2ccccc2)CNC/C1=C\c1ccccc1`, the TGI is 2.66 µM with KM12 colon; 22.1 µM in the assay on HOP-92 NSCLC; 4.37 µM in the assay on ACHN renal; 3.11 µM with COLO 205 colon; 3.08 µM with NCI-H460 lung; 3.56 µM in the assay with M14 melanoma. In the assay with TK-10 renal, this compound returned a TGI of 7.61 µM.
With `Cc1cc2c(cc1C)[n+](=O)c(C(=O)C/C(=N/NC(=O)CC#N)C(=O)Nc1ccccc1C(F)(F)F)c(C)n2[O-]`, the TGI in the assay on KM12 colon is more than 100 µM; in the assay on ACHN renal it was more than 100 µM; in the assay with COLO 205 colon it was more than 100 µM; in the assay on HL-60(TB) leukemia it was 86 µM; in the assay on NCI-H460 lung, more than 100 µM; in the assay on M14 melanoma, more than 100 µM. The TGI in the assay on TK-10 renal and with RXF 393 renal was more than 100 µM in each case.
As for `CCOC(=O)[C]1([Bi]([CH3])[CH3])N=NC(C(=O)OC)=C1C(=O)OC` (stereo not given), the GI50 in the assay with KM12 colon is 21.5 µM; in the assay on HOP-92 NSCLC it was 20.4 µM; in the assay with ACHN renal it was 18 µM; in the assay with COLO 205 colon it was 19.8 µM; in the assay on HL-60(TB) leukemia, 21.2 µM; in the assay on NCI-H460 lung, more than 100 µM. Further, the GI50 in the assay with M14 melanoma was more than 10 µM; in the assay with TK-10 renal, 17.3 µM. Besides, the TGI in the assay on KM12 colon is 49.2 µM; in the assay on HOP-92 NSCLC, 42.8 µM; with ACHN renal, 32.4 µM; with COLO 205 colon it was 35.9 µM; in the assay with HL-60(TB) leukemia, 52.1 µM; in the assay on NCI-H460 lung, more than 100 µM. The values for the TGI in the assay on M14 melanoma and in the assay on TK-10 renal were more than 10 µM and 32.1 µM, respectively.
Turning to `O=c1c2cc([N+](=O)[O-])ccc2sc2ccsc12`, the TGI in the assay with KM12 colon, in the assay with HOP-92 NSCLC, with ACHN renal, in the assay on COLO 205 colon, with HL-60(TB) leukemia and in the assay with NCI-H460 lung was more than 100 µM each time. For the same compound, the TGI in the assay with M14 melanoma and with RXF 393 renal was more than 100 µM in each case.
For `O=C1CCC2(c3ccc(F)cc3)Nc3cc(Cl)ccc3N12` (stereo not given), the TGI in the assay with KM12 colon, in the assay on ACHN renal, in the assay with COLO 205 colon, with HL-60(TB) leukemia, in the assay with M14 melanoma and with RXF 393 renal was more than 100 µM in each case.
With `COC(=O)C1Cc2c(n(Cc3ccccc3)c3ccccc23)C(CCC(=O)O)N1C(C)C` (stereo not given), the TGI in the assay with KM12 colon, in the assay with HOP-92 NSCLC, with ACHN renal, in the assay on COLO 205 colon, in the assay on HL-60(TB) leukemia and in the assay on NCI-H460 lung was more than 100 µM each time. For the same compound, the TGI in the assay on M14 melanoma and in the assay on TK-10 renal was more than 100 µM in each case.
